Source: patent US10105357B2, “Indication of antibiotic drugs for preparation of cancer inhibition pharmaceutical composition” (LAUNX BIOMEDICAL CO., LTD., priority 2014, dated 2018)
Structures can show the parent of a compound that is named as a salt. Where two headings read alike, the source gives them in different places.

Tests used:
Type in all cases: cell-based, human
[1] = test system: A375 (Amelanotic Melanoma); assay: Cell viability analysis, skin cancer A375; conditions: Homo sapiens, A-375, 72 h
[2] = test system: HL-60 (Acute Promyelocytic Leukemia); assay: Cell viability analysis, leukemia HL-60; conditions: Homo sapiens, HL-60, 72 h
[3] = test system: MCF7 (Mammary Gland, Adenocarcinoma); assay: Cell viability analysis, breast cancer MCF7; conditions: Homo sapiens, MCF7, 72 h
[4] = test system: HepG2 (Hepatocellular Carcinoma); assay: Cell viability analysis, hepatic cancer HepG2; conditions: Homo sapiens, HepG2, 72 h
[5] = test system: A549 (Lung Adenocarcinoma); assay: Cell viability analysis, lung cancer A549; conditions: Homo sapiens, A549, 72 h
cancer cell lines = assay: Cell viability analysis (WST-1) on cancer cell lines; conditions: drug 10 μM, 72 hours, WST-1; Table 3
[6] = test system: LoVo (Colorectal Adenocarcinoma); assay: Cell viability analysis, colon cancer LoVo; conditions: Homo sapiens, LoVo, 72 h, read-out: cell viability (survival rate), LoVo, drug 10 μM, 72 hours, WST-1, OD450 nm
[7] = test system: TSGH-8301 (Urinary Bladder Carcinoma); assay: Cell viability analysis, bladder cancer TSGH-8301; conditions: Homo sapiens, 72 h
[8] = test system: HI650 (Lung Adenocarcinoma); assay: Cell viability analysis, lung cancer HI650; conditions: Homo sapiens, NCI-H1650, 72 h
[9] = test system: PC3 (p53−) (Prostate Adenocarcinoma); assay: Cell viability analysis, prostate cancer PC3; conditions: Homo sapiens, 72 h
[10] = test system: AGS (Gastric Adenocarcinoma); assay: Cell viability analysis, gastric cancer AGS; conditions: Homo sapiens, 72 h
[11] = test system: MKN-45 (Gastric Adenocarcinoma); assay: Cell viability analysis, gastric cancer MKN-45; conditions: Homo sapiens, MKN-45, 72 h
[12] = test system: HeLa (Cervix Adenocarcinoma); assay: Cell viability analysis, cervical cancer HeLa; conditions: Homo sapiens, HeLa, 72 h
[13] = read-out: cell viability (survival rate), A375, drug 10 μM, 72 hours, WST-1, OD450 nm
[14] = read-out: cell viability (survival rate), HL-60, drug 10 μM, 72 hours, WST-1, OD450 nm
[15] = read-out: cell viability (survival rate), MCF7, drug 10 μM, 72 hours, WST-1, OD450 nm
[16] = read-out: cell viability (survival rate), HepG2, drug 10 μM, 72 hours, WST-1, OD450 nm
[17] = read-out: cell viability (survival rate), A549, drug 10 μM, 72 hours, WST-1, OD450 nm
[18] = read-out: cell viability (survival rate), TSGH, drug 10 μM, 72 hours, WST-1, OD450 nm
[19] = read-out: cell viability (survival rate), H1650, drug 10 μM, 72 hours, WST-1, OD450 nm
[20] = read-out: cell viability (survival rate), PC3, drug 10 μM, 72 hours, WST-1, OD450 nm
[21] = read-out: cell viability (survival rate), AGS, drug 10 μM, 72 hours, WST-1, OD450 nm
[22] = read-out: cell viability (survival rate), MKN-45, drug 10 μM, 72 hours, WST-1, OD450 nm
[23] = read-out: cell viability (survival rate), HeLa, drug 10 μM, 72 hours, WST-1, OD450 nm

| Compound | viability at 10 µM [1, 13] | viability at 10 µM [2, 14] | viability at 10 µM [3, 15] | viability at 10 µM [4, 16] | viability at 10 µM [5, 17] | inhibition effect on different cancer cell lines (cancer cell lines) | viability at 10 µM [6] | viability at 10 µM [7, 18] | viability at 10 µM [8, 19] | viability at 10 µM [9, 20] | viability at 10 µM [10, 21] | viability at 10 µM [11, 22] | viability at 10 µM [12, 23] | also measured |
| --- | --- | --- | --- | --- | --- | --- | --- | --- | --- | --- | --- | --- | --- | --- |
| Nc1ccc(S(=O)(=O)Nc2ccccn2)cc1 [Sulfapyridine (Dagenan), Sulfapyridine] | 77.2% | 111% | 54.7% | 98.9% | 64.5% | significant inhibition effect | 84.6% | 64.6% | 69.5% | 108% | 71.9% | 53.8% | 71.2% | – |
| CCn1cc(C(=O)O)c(=O)c2cc(F)c(N3CCNCC3)cc21 [Norfloxacin (Norxacin), Norfloxacin] | 73.8% | 87.7% | 94.8% | 90.5% | 84.8% | significant inhibition effect | 88% | 75.9% | 75% | 72.2% | 63.8% | 68.9% | 78.7% | – |
| COc1cc2nc(N3CCN(C(=O)C4CCCO4)CC3)nc(N)c2cc1OC (stereo not drawn) [Terazos in HCl (Hytrin), Terazosin HCl] | 77.9% | 111% | 33.4% | 93.4% | 21.3% | significant inhibition effect | 45.7% | 71.6% | 74.9% | 40.5% | 56.8% | 82.1% | 60.7% | – |
| Nc1nc(=O)n([C@@H]2CS[C@H](CO)O2)cc1F [Emtricitabine (Emtriva), Emtricitabine] | 84% | 119% | 74% | 110% | 86.9% | significant inhibition effect | 82.6% | 85.3% | 61% | 77.1% | 48% | 62.8% | 79.6% | – |
| CC1=C(C(=O)O)N2C(=O)[C@@H](NC(=O)[C@H](N)c3ccccc3)[C@H]2SC1 [Cephalexin (Cefalexin), Cephalexin] | 92.7% | 95.2% | 96.1% | 109% | 80.6% | significant inhibition effect | 85.9% | 69.2% | 71.2% | 57.5% | 59.6% | 94.9% | 76.2% | – |
| C[C@@H](O)[C@H]1C(=O)N2C(C(=O)O)=C(S[C@@H]3CN[C@H](C(=O)N(C)C)C3)[C@H](C)[C@H]12 [Meropenem] | – | – | – | – | – | significant inhibition effect | 87.3% | – | – | – | – | – | – | viability at 10 µM ([1]; drug 10 μM, 72 hours, WST-1, OD450 nm, read-out: cell viability (survival rate), A375): 65.1%; viability at 10 µM ([2]; drug 10 μM, 72 hours, WST-1, OD450 nm, read-out: cell viability (survival rate), HL-60): 102%; viability at 10 µM ([3]; drug 10 μM, 72 hours, WST-1, OD450 nm, read-out: cell viability (survival rate), MCF7): 68.1%; viability at 10 µM ([4]; drug 10 μM, 72 hours, WST-1, OD450 nm, read-out: cell viability (survival rate), HepG2): 99.3%; viability at 10 µM ([5]; drug 10 μM, 72 hours, WST-1, OD450 nm, read-out: cell viability (survival rate), A549): 46%; viability at 10 µM ([7]; drug 10 μM, 72 hours, WST-1, OD450 nm, read-out: cell viability (survival rate), TSGH): 132%; viability at 10 µM ([8]; drug 10 μM, 72 hours, WST-1, OD450 nm, read-out: cell viability (survival rate), H1650): 55.4%; viability at 10 µM ([9]; drug 10 μM, 72 hours, WST-1, OD450 nm, read-out: cell viability (survival rate), PC3): 70.7%; viability at 10 µM ([10]; drug 10 μM, 72 hours, WST-1, OD450 nm, read-out: cell viability (survival rate), AGS): 68.3%; viability at 10 µM ([11]; drug 10 μM, 72 hours, WST-1, OD450 nm, read-out: cell viability (survival rate), MKN-45): 84.9%; viability at 10 µM ([12]; drug 10 μM, 72 hours, WST-1, OD450 nm, read-out: cell viability (survival rate), HeLa): 111% |
